Measurements taken from patent publication US11427601B1, “Inhibitors of KEAP1-Nrf2 protein-protein interaction” (Janssen Pharmaceutica NV, priority 2018, dated 2022).

Tested on: NrF2 activation of the ARE (Glo-Response ARE-luc2P HEK293 cell line)
Test: ARE luciferase reporter assay in HEK293 cells
Assay type: cell-based
Conditions: 24 hours, average of results obtained
Procedure: The ARE assay utilizes a luciferase reporter cell line where the signal is proportional to NrF2 activation of the ARE. The cell line is commercially available from Promega and was prepared by stably transfecting HEK293 cells with a vector (pGL4.11) which contains the ARE response element upstream of a minimal promoter. The promoter drives expression of luc2 firefly luciferase gene. Upon disruption of KEAP1-Nrf2 binding by compound, Nrf2 translocates into the nucleus where it binds to the ARE and activates transcription of luciferase.
The materials used in this ARE assay are as follows: Glo-Response ARE-luc2P HEK293 cell line and One-Glo Luciferase Assay System were purchased from Promega (Madison, Wis.). Dulbecco's Modified Eagle medium ((DMEM), low glucose, GlutaMAX, pyruvate), fetal bovine serum (certified, heat inactivated), hygromycin B, Dulbecco's phosphate-buffered saline were purchased from Life Technologies (Grand Island, N.Y.). Penicillin, streptomycin solution (100×) and 0.05% trypsin-EDTA were purchased from Corning (Manassas, Va.). DMSO was purchased from EMD Millipore.
The ARE assay protocol is as follows: cells were maintained in growth medium (DMEM +10% FBS, 200 μg/mL hygromycin B, p-s) between 20-90% confluency by splitting twice per week. One day before the assay, cells were trypsinized, counted to determine viable cell count, and re-suspended in assay medium (DMEM +10% FBS, p-s) at 250,000 cells/mL. […] 100% DMSO was used as the low control. A 11-point dose series of the control compound was included on every plate. Compounds were spotted to an intermediate plate (Greiner # 781280 V-bottom 384 well plate) using the Echo acoustic dispenser (Labscyte San Jose, Calif.). Spot size was 240 nL.
On the day of the assay, 60 mL per well of assay medium was added to the pre-spotted plate to make 2X compound stocks using the Combi (Thermo Waltham, Mass.). Compound and medium were mixed on the Janus and 20 mL of 2× compound stock was added to the cell plate which already contained 20 mL of assay medium from cell plating. […] The plates were returned to the tissue culture incubator for 24 hours.
The next day, luciferase activity was measured according to the manufacturer's protocol for One-Glo luciferase reagent. The plates were removed from the incubator and allowed to equilibrate to room temperature for 30 min. Forty microliters of One-Glo reagent (equilibrated to room temperature) was added per well using the Combi. The plates were mixed on an orbital shaker for 3 min. Luminescence was read on the BMG Pherastar multiplate reader (Cary, N.C.) using the luminescence protocol (1 sec interval).
The dose-response data were analyzed in Genedata Screener using 4PL nonlinear regression model. Raw luminescence counts as well as normalized values were used for data analysis.

Compound	EC50
Cc1ccc([C@@H](c2ccn3c(C(F)(F)F)nnc3c2C)C(C)(C)C(=O)O)cc1CN1CC2(CC2)Oc2nc(OCCN3CCCC3)ccc2S1(=O)=O (single isomer, unassigned) [Example 598, (*S)-3-(3-((1′,1′-dioxido-7′-(2-(pyrrolidine-1-yl)ethoxy)spiro[cyclopropane-1,4′-pyrido[2,3-b][1,4,5]oxathiazepin]-2′(3′H)-yl)methyl)-4-methylphenyl)-2,2-dimethyl-3-(8-methyl-3-(trifluoromethyl)-[1,2,4]triazolo[4,3-a]pyridine-7-yl)propanoic acid]	8.85 nM
(*S)-3-(3-((7′-(3-((2-(2-aminoethoxy)ethyl)amino)-3-oxopropyl)-1′,1′-dioxido-2,3,5,6-tetrahydrospiro[pyran-4,4′-pyrido[2,3-b][1,4,5]oxathiazepin]-2′(3′H)-yl)methyl)-4-methylphenyl)-2,2-dimethyl-3-(8-methyl-3-(trifluoromethyl)-[1,2,4]triazolo[4,3-a]pyridin-7-yl)propanoic acid [Example 345]	> 20 nM
CCc1nnc2c(C)c([C@H](CC(=O)O)c3ccc(C)c(CN4C[C@H]5CCCN5c5ncccc5S4(=O)=O)c3)ccn12 (relative stereo) [Example 283, (*R)-3-(3-(((R)-5,5-dioxido-7a,8,9,10-tetrahydropyrido[2,3-f]pyrrolo[2,1-d][1,2,5]thiadiazepin-6(7H)-yl)methyl)-4-methylphenyl)-3-(3-ethyl-8-methyl-[1,2,4]triazolo[4,3-a]pyridin-7-yl)propanoic acid]	4170 nM
Cc1cnc2c(c1)S(=O)(=O)N(Cc1cc([C@H](CC(=O)O)c3ccn4c(C(F)(F)F)nnc4c3C)ccc1C)C[C@@H]1CCCCN21 (relative stereo) [Example 307, (*S)-3-(4-methyl-3-(((*S)-3-methyl-5,5-dioxido-7,7a,8,9,10,11-hexahydro-6H-dipyrido[2,1-d:2′,3′-f][1,2,5]thiadiazepin-6-yl)methyl)phenyl)-3-(8-methyl-3-(trifluoromethyl)-[1,2,4]triazolo[4,3-a]pyridin-7-yl)propanoic acid]	2 nM
Cc1ccc([C@H](c2ccc3c(nnn3C3CC3)c2C)C(C)(C)C(=O)O)cc1CN1CC2(CC2)Oc2nc(N[C@@H](C)CN3CCCCC3)c(C)cc2S1(=O)=O (relative stereo) [Example 660, (*R)-3-(1-Cyclopropyl-4-methyl-1H-benzo[d][1,2,3]triazol-5-yl)-2,2-dimethyl-3-(4-methyl-3-((8′-methyl-1′,1′-dioxido-7′-(((S)-1-(piperidin-1-yl)propan-2-yl)amino)spiro[cyclopropane-1,4′-pyrido[2,3-b][1,4,5]oxathiazepin]-2′(3′H)-yl)methyl)phenyl)propanoic acid]	235 nM
Cc1ccc([C@H](CC(=O)O)c2ccc3c(nnn3CC3CC3)c2C(F)F)cc1CN1C[C@@H]2CCCCN2c2ncccc2S1(=O)=O (relative stereo) [Example 172, (*S)-3-(1-(Cyclopropylmethyl)-4-(difluoromethyl)-1H-benzo[d][1,2,3]triazol-5-yl)-3-(3-(((*S)-5,5-dioxido-7,7a,8,9,10,11-hexahydro-6H-dipyrido[2,1-d:2′,3′-f][1,2,5]thiadiazepin-6-yl)methyl)-4-methylphenyl)propanoic acid]	19 nM
Cc1ccc([C@H](CC(=O)O)c2ccn3c(C(F)(F)F)nnc3c2C)cc1CN1CC2(COC2)Oc2ccc(F)cc2S1(=O)=O (single isomer, unassigned) [Example 99]	5.8 nM

Same assay, conditions: Homo sapiens, HEK293, 24 h, average of results obtained

Compound	EC50
Cc1cnc2c(c1)S(=O)(=O)N(Cc1cc([C@H](c3ccn4c(C(F)(F)F)nnc4c3C)C(C)(C)C(=O)O)cnc1C)CC1(CC1)O2 (single isomer, unassigned) [Example 573, (*S)-2,2-Dimethyl-3-(8-methyl-3-(trifluoromethyl)-[1,2,4]triazolo[4,3-a]pyridin-7-yl)-3-(6-methyl-5-((8′-methyl-1′,1′-dioxidospiro[cyclopropane-1,4′-pyrido[2,3-b][1,4,5]oxathiazepin]-2′(3′H)-yl)methyl)pyridin-3-yl)propanoic acid]	321 nM
Cc1ccc([C@H](c2cc(C)n3c(C(F)(F)F)nnc3c2C)C(C)C(=O)O)cc1CN1C[C@@H]2CCCCN2c2ncccc2S1(=O)=O (relative stereo) [Example 133, (3*R)-3-(5,8-Dimethyl-3)-(trifluoromethyl)-[1,2,4-triazolo[4,3-a]pyridine-7-yl)-3-(3-((*S)-5,5-dioxido-7,7a,8,9,10,11-hexahydro-6H-dipyrido[2,1-d:2′,3′-f][1,2,5]thiadiazepin-6-yl)methyl)-4-methylphenyl)-2-methylpropanoic acid]	2 nM
Cc1ccc([C@H](CC(=O)O)c2cc(OC(F)F)c3c(c2)nnn3C)cc1CN1C[C@H]2CCCN2c2ncccc2S1(=O)=O (single isomer, unassigned) [Example 247, (*S)-3-(7-(Difluoromethoxy)-1-methyl-1H-benzo[d][1,2,3]triazol-5-yl)-3-(3-(((R)-5,5-dioxido-7a,8,9,10-tetrahydropyrido[2,3-f]pyrrolo[2,1-d][1,2,5]thiadiazepin-6(7H)-yl)methyl)-4-methylphenyl)propanoic acid]	225 nM
Cc1ccc(C(c2ccn3c(C(F)(F)F)nnc3c2C)C(C)C(=O)O)cc1CN1C[C@@H]2CCCCN2c2ncccc2S1(=O)=O (stereo in doubt) [Example 129, 3-(3-(((*S)-5,5-Dioxido-7,7a,8,9,10,11-hexahydro-6H-dipyrido[2,1-d:2′,3′-f][1,2,5]thiadiazepin-6-yl)methyl)-4-methylphenyl)-2-methyl-3-(8-methyl-3-(trifluoromethyl)-[1,2,4]triazolo[4,3-a]pyridine-7-yl)propanoic acid]	6.8 nM
Cc1cnc2c(c1)S(=O)(=O)N(Cc1cc(C(c3ccn4c(C(F)(F)F)nnc4c3C)C(C)(C)C(=O)O)cnc1C)CC1(CC1)O2 (single isomer, unassigned) [Example 574, (*R)-2,2-Dimethyl-3-(8-methyl-3-(trifluoromethyl)-[1,2,4]triazolo[4,3-a]pyridin-7-yl)-3-(6-methyl-5-((8′-methyl-1′,1′-dioxidospiro[cyclopropane-1,4′-pyrido[2,3-b][1,4,5]oxathiazepin]-2′(3′H)-yl)methyl)pyridin-3-yl)propanoic acid]	14600 nM

Molecular target: Kelch domain of human KEAP 1 (321-624 aa) (Homo sapiens (Human), UniProt Q14145)
Test: KEAP1 KELCH ThermoFluor binding assay
Conditions: KEAP Kelch 1.1 μM, pH 7.0, average of results obtained, read-out: Tf Kd
Source text: The shift in the melting point described as a ΔTm is proportional to the concentration and affinity of the ligand. The compound potency may be compared as a rank order of either ΔTm values at a single compound concentration or in terms of KD values, estimated from concentration response curves.
The protein was expressed in E. coli with 6His tag that was cleaved prior to receipt for use.
Protein (KEAP Kelch) and compound solutions were dispensed into black 384-well polypropylene PCR microplates (Abgene) and overlayed with silicone oil (1 μL, Fluka, type DC 200) to prevent evaporation.

Chain of Kelch domain of human KEAP 1 (321-624 aa) (Q14145 321-624): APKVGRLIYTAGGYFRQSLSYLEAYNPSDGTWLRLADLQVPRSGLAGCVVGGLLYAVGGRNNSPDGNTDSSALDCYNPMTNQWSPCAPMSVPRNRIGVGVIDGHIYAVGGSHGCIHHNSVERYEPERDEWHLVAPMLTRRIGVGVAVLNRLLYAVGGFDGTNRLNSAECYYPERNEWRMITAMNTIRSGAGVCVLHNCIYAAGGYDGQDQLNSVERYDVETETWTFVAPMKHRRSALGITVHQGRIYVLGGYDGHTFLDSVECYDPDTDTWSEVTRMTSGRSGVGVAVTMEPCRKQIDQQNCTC

Compound	Kd
CCn1nnc2c(C)c(C(CC(=O)O)c3ccc(C)c(CN4CC5(COC5)Oc5ccccc5S4(=O)=O)n3)ccc21 (racemic) [Example 237, (R/S)-3-(6-((1,1-Dioxidospiro[benzo[b][1,4,5]oxathiazepine-4,3′-oxetan]-2(3H)-yl)methyl)-5-methylpyridin-2-yl)-3-(1-ethyl-4-methyl-1H-benzo[d][1,2,3]triazol-5-yl)propanoic acid]	1.5 nM
Cc1ccc(C(c2ccn3c(C(F)(F)F)nnc3c2C)C(C)C(=O)O)cc1CN1C[C@@H]2CCCCN2c2ncccc2S1(=O)=O (stereo in doubt) [Example 129, 3-(3-(((*S)-5,5-Dioxido-7,7a,8,9,10,11-hexahydro-6H-dipyrido[2,1-d:2′,3′-f][1,2,5]thiadiazepin-6-yl)methyl)-4-methylphenyl)-2-methyl-3-(8-methyl-3-(trifluoromethyl)-[1,2,4]triazolo[4,3-a]pyridine-7-yl)propanoic acid]	< 1 nM
